# Test results reported in patent US20240016875A1, “SHAN-ZHA FOR THE TREATMENT OF DEPRESSION AND ANXIETY DISORDERS” (THE OPEN UNIVERSITY, priority 2020, published 2024).
# “Also recorded” adds a separate entry of the source.
# Experiments:
# Format in all cases: in vivo
# [1] = test system: stressed mice; test: Elevated plus maze (EPM), UCMS-stressed mice, Examples 1-3; settings: UCMS-stressed male ICR mice; herbs and NHT 30 mg/kg, escitalopram 15 mg/kg i.p., 3 weeks; vs vehicle
# Procedure: The EPM task was performed as previously described [6]. Shortly, each mouse was placed in the center of the maze and video recorded for 5 min. Anxiety-like behavior was expressed as the time the mouse spent in the open, unprotected arms of the maze. […]
# [2] = test system: stressed mice; test: Open field test (OFT), locomotor activity, Examples 1-3; settings: UCMS-stressed male ICR mice; herbs and NHT 30 mg/kg, escitalopram 15 mg/kg i.p., 3 weeks
# Procedure: ICR outbred 28-30 days old male mice (Envigo, Israel) were maintained in the vivarium of the Open University lab in Hadassah Ein Karem medical cement, Jerusalem. Mice were group housed (5 mice per cage) and each cage contained mice from all treatment groups. Mice were given ad libitum access to food and water except during stressor application (with the exclusion of the light/dark cycle reversal). Mice kept on a reversed 12 h light/dark cycle (lights on 7:00 pm-7:00 am) while experimental procedures were performed during the dark phase under red light. All experiments were approved by the Open University of Israel committee for animal care and use. Methods were carried out in accordance with the NIH guidelines.
# Crataegus pinnatifida, Triticum aestivum, Lilium brownii and Fructus zizyphi jujuba were purchased as freeze-dried granules (KPC Products, Inc., Irvine, CA, USA). […]
# The open field consists of an empty square arena (40×40×40 cm) and surrounded by Perspex opaque walls. Each mouse was placed in the center of the arena and video recorded for 5 min. […] Locomotor activity was expressed as the percentage of time that the mouse was moving in the arena in a velocity above 0.1 pixel/sec. […]
# [3] = Body weight monitoring, stressed mice; settings: UCMS-stressed mice, Shan-zha and NHT 30 mg/kg, escitalopram 15 mg/kg i.p., 3 weeks, vs vehicle
# Procedure: Crataegus pinnatifida, Triticum aestivum, Lilium brownii and Fructus zizyphi jujuba were purchased as freeze-dried granules (KPC Products, Inc., Irvine, CA, USA). Each herb was dissolved in saline with 1% dimethylsulfoxide (DMSO) to a final concentration of 0.47 mg/ml and injected i.p. individually (30 mg/kg) or with the other components to form the formula (NHT, 30 mg/kg). […] Vehicle treatment included i.p. injection of saline with 1% DMSO. All treatments were carried out for 3 weeks. Mice were weighed every 3 days throughout the treatment period. Change in weight was calculated as final (weight-initial weight)/initial weight×100.
# [4] = test system: Ckb gene; test: Hippocampal RNA-sequencing, gene expression after UCMS; settings: hippocampus; UCMS mice; Shan-zha 30 mg/kg, escitalopram 15 mg/kg, 3 weeks; vs UCMS-exposed saline treated group
# Procedure: (§1) An Unbiased genome-wide transcriptomic profiling was conducted to reveal alterations in gene expression in the hippocampus induced by treatment. Male ICR mice were subjected to UCMS, after which they were treated with Shan-zha (30 mg/kg), NHT (30 mg/kg), Esciatlopram (15 mg/kg) or saline for 3 weeks. The anxiolytic-like effect of the treatments was verified by EPM. Subsequently, brains were rapidly removed and RNA was isolated from the hippocampus using RNeasy kit (Qiagen). RNA-sequencing (on NGS) and gene expression analysis was conducted. The analysis yielded a wide range of changes in gene expression.
# (§2) First, all samples were normalized and clustered in order to verify that there are no noticeable biases based on batches/process/technician/day.. Next, hit maps were generated, in order to observe the global differences between the groups. After which, a PCA analysis was performed to visualize the separation between the samples. Finally, Differential expression analysis with DESE-Q was done, and changes in gene expression of the following genes, which are highly relevant to anxiety, depression or drug-related side effects were followed: […]
# [5] = test system: rab11B gene; test: as above; settings: hippocampus; UCMS mice; Shan-zha 30 mg/kg, escitalopram 15 mg/kg, 3 weeks; vs UCMS-exposed saline treated group
# Procedure: as §1, §2
# [6] = test system: stressed mice; test: Open Field Test (OFT), UCMS-stressed mice, Example 7; settings: 30 mg/kg (escitalopram 15 mg/kg) i.p., 3 weeks, vs vehicle
# Procedure: Animals. ICR outbred mice (Envigo RMS (Harlen), Israel) are kept in the vivarium of the Open University lab in Hadassah medical center, Jerusalem. Mice are kept on a reversed 12 h light/dark cycle and given ad libitum access to food and water. All experiments are performed during the dark phase under red light (7:00-19:00). All experiments have been approved by the committee for animal care and use according to the NIH guidelines. Drugs. Drugs are dissolved in saline and 1% DMSO to the desired concentration and administered i.p. Herbal mixture and Shan-zha (30 mg/kg) will be prepared by dissolving each component (KPC Products, Inc., CA, USA) to a final concentration of 0.47 mg/ml. […] Unpredictable chronic mild stress (UCMS). Mice are exposed to UCMS for 4 weeks at the age of 4 weeks as previously described. Open Field Test (OFT). This test reflects the conflict between the innate fear that mice have of the central area of the field versus their desire to explore new environments. When anxious, the natural tendency of mice is to prefer staying close to the walls. […] Anxiety-like behavior is expressed as the time the animal spent in the center area of the field (Walsh, R. N. and R. A. Cummins, Psychol Bull, 1976. 83(3): p. 482-504). Locomotor activity are expressed as the percentage of time that the mouse moved in the arena in a velocity above 0.1 pixel/sec.
# [7] = test system: stressed mice; test: Tail Suspension Test (TST), UCMS-stressed mice, Example 7; settings: 30 mg/kg (escitalopram 15 mg/kg) i.p., 3 weeks, vs vehicle
# Procedure: Animals. ICR outbred mice (Envigo RMS (Harlen), Israel) are kept in the vivarium of the Open University lab in Hadassah medical center, Jerusalem. Mice are kept on a reversed 12 h light/dark cycle and given ad libitum access to food and water. All experiments are performed during the dark phase under red light (7:00-19:00). All experiments have been approved by the committee for animal care and use according to the NIH guidelines. Drugs. Drugs are dissolved in saline and 1% DMSO to the desired concentration and administered i.p. Herbal mixture and Shan-zha (30 mg/kg) will be prepared by dissolving each component (KPC Products, Inc., CA, USA) to a final concentration of 0.47 mg/ml. […] Unpredictable chronic mild stress (UCMS). Mice are exposed to UCMS for 4 weeks at the age of 4 weeks as previously described. Tail Suspension Test (TST). This test is based upon the evaluation of immobility as a measure of behavioral despair and are performed as previously described. Depressive-like behavior are expressed as the time the mouse was immobile.
smiles,measurement,setting,value
CN(C)CCC[C@@]1(c2ccc(F)cc2)OCc2cc(C#N)ccc21 [escitalopram],time spent in the open arms of the EPM (anxiety-like behavior),[1],spent more time in the open arms of the maze in comparison with vehicle-treated mice; also recorded: reduced anxiety-like behavior in the EPM compared to vehicle
same,locomotor activity in the OFT,[2],No change in locmotor activity
same,weight change,[3],significantly increased weight compared to vehicle
same,weight change,[3]; listed as Escitalopram,higher weight gain in comparison with vehicle-treated mice
same,Ckb gene expression,[4],0.83 fold change
same,RAB11b gene expression,[5],0.77 fold change
same,anxiety-like behavior in the OFT,[6],exhibited reduced anxiety-like behavior in the OFT compared to vehicle-treated stressed mice
same,depressive-like behavior in the TST,[7],exhibited reduced depressive-like behavior in the TST compared to vehicle-treated stressed mice
